Results on three compounds are retold here after patent US20260234167A1, “SOLID STATE FORMS OF DELGOCITINIB AND PROCESS THEREOF” (ASSIA CHEMICAL INDUSTRIES LTD., priority 2023, published 2026).

Molecules are shown by their SMILES.

Holding throughout (type): physicochemical
Data set [1] in a line: Grinding experiments (strong grinding in mortar with pestle for 2 minutes), XRPD after grinding. The note with it: for XRPD after grinding: about 20 mg ground in mortar with pestle for 2 minutes. How it is done: Powder X-ray Diffraction was performed on an X-Ray powder diffractometer Bruker D8 Advance; CuK radiation (λ=1.5418 Å); Lynx eye detector; laboratory temperature 22-25° C.; PMMA specimen holder ring. Prior to analysis, the samples were gently ground by means of mortar and pestle in order to obtain a fine powder. The ground sample was adjusted into a cavity of the sample holder and the surface of the sample was smoothed by means of a cover glass. Measurement parameters: Scan range: 2-40 degrees 2-theta; Scan mode: continuous; Step size: 0.05 degrees; Time per step: 0.5 s; Sample spin: 30 rpm; Sample holder: PMMA specimen holder ring with silicon low background. Samples of Delgocitinib forms according to the disclosure were subjected to strong grinding. In these experiments, about 20 mg of the sample was placed in a mortar and ground with a pestle for 2 minutes. XRPD analysis was performed on each sample after the grinding experiment (Table 4): […]

A short description of data set [2]: Storage stability at different relative humidities at ambient temperature, XRPD after 7 days. The note with it: for XRPD after storage at different relative humidities for 7 days: ambient temperature. The method, then:
Powder X-ray Diffraction was performed on an X-Ray powder diffractometer Bruker D8 Advance; CuK radiation (λ=1.5418 Å); Lynx eye detector; laboratory temperature 22-25° C.; PMMA specimen holder ring. Prior to analysis, the samples were gently ground by means of mortar and pestle in order to obtain a fine powder. The ground sample was adjusted into a cavity of the sample holder and the surface of the sample was smoothed by means of a cover glass. Measurement parameters: Scan range: 2-40 degrees 2-theta; Scan mode: continuous; Step size: 0.05 degrees; Time per step: 0.5 s; Sample spin: 30 rpm; Sample holder: PMMA specimen holder ring with silicon low background. Samples of crystalline forms of Delgocitinib according to the disclosure, were subjected to conditions of different relative humidities at ambient temperature. XRPD analysis was performed on the samples after 7 days.

Data set [3] in a line: Stability to compression (2 tons, hydraulic press), XRPD after 2 minutes. The method, then: Powder X-ray Diffraction was performed on an X-Ray powder diffractometer Bruker D8 Advance; CuK radiation (λ=1.5418 Å); Lynx eye detector; laboratory temperature 22-25° C.; PMMA specimen holder ring. Prior to analysis, the samples were gently ground by means of mortar and pestle in order to obtain a fine powder. The ground sample was adjusted into a cavity of the sample holder and the surface of the sample was smoothed by means of a cover glass. Measurement parameters: Scan range: 2-40 degrees 2-theta; Scan mode: continuous; Step size: 0.05 degrees; Time per step: 0.5 s; Sample spin: 30 rpm; Sample holder: PMMA specimen holder ring with silicon low background. Samples of Delgocitinib were subjected to pressures of 2 tons (Atlas® Autopress hydraulic press, set to 2 tons). XRPD analysis was carried out on the samples after 2 minutes.

Data set [4] is described as follows: Storage stability at different relative humidities and temperatures in packed bags, XRPD after 1, 2, 3 and 6 months. How it is done: Powder X-ray Diffraction was performed on an X-Ray powder diffractometer Bruker D8 Advance; CuK radiation (λ=1.5418 Å); Lynx eye detector; laboratory temperature 22-25° C.; PMMA specimen holder ring. Prior to analysis, the samples were gently ground by means of mortar and pestle in order to obtain a fine powder. The ground sample was adjusted into a cavity of the sample holder and the surface of the sample was smoothed by means of a cover glass.
Measurement parameters: Scan range: 2-40 degrees 2-theta; Scan mode: continuous; Step size: 0.05 degrees; Time per step: 0.5 s; Sample spin: 30 rpm; Sample holder: PMMA specimen holder ring with silicon low background.
Samples of Delgocitinib polymorph forms according to the disclosure were subjected to conditions of different relative humidities at different temperatures. Forms DL1 was kept in low-density polyethylene bag (twist and tied) covered by triple laminated bag (heat and sealed). Forms DL2, DL3, DL10 and DL11 were kept in low-density polyethylene bag (twist and tied) and covered by triple laminated bag (heat and sealed), while 2 gram silica gel sachet was added in between the two bags.

As to `C[C@H]1CN(C(=O)CC#N)[C@]12CCN(c1ncnc3[nH]ccc13)C2` [Form DL1, 3-[(3S,4R)-3-methyl-7-(7H-pyrrolo[2,3-d]pyrimidin-4-yl)-1,7-diazaspiro[3.4]octan-1-yl]-3-oxopropanenitrile], the XRPD after grinding result in data set [1] (listed as DL1) is “DL1”. In data set [1] (strong grinding, 2 minutes), the “Resistance to polymorphic changes on grinding (conclusion in words)” value is listed as “resistant to polymorphic changes”. For the same compound, the “XRPD after storage at different relative humidities for 7 days” value is on record as “DL1” in data set [2] (20% relative humidity, listed as DL1); “DL1” in data set [2] (40% relative humidity, listed as DL1); “DL1” in data set [2] (60% relative humidity, listed as DL1); “DL1” in data set [2] (80% relative humidity, listed as DL1). Also, the “Stability after exposure to high and low relative humidity conditions (conclusion in words)” value in data set [2] (20-80% relative humidity, at least 7 days) was “stable”. In addition, the “XRPD after compression force (2 tons for 2 minutes)” value (“XRPD after compression force” for short) in data set [3] (listed as DL1) is on record as “DL1”. Also, the “Stability under high pressure conditions (conclusion in words)” value in data set [3] (2 tons, 2 minutes) is on record as “stable under high pressure conditions”. In addition, the “XRPD after storage at 25° C. at 60% RH” value in data set [4] (1 month, listed as DL1) is “DL1”; in data set [4] (2 months, listed as DL1) it was “DL1”; in data set [4] (3 months, listed as DL1), “DL1”; in data set [4] (6 months, listed as DL1), “DL1”. In data set [4] (25° C./60% RH and 40° C./75% RH, up to 6 months), the “Storage stability (conclusion in words)” value is on record as “highly storage stable”. For the same compound, the “XRPD after storage at 40° C. at 75% RH” value in data set [4] (1 month, listed as DL1) is on record as “DL1”; in data set [4] (2 months, listed as DL1), “DL1”; in data set [4] (3 months, listed as DL1) it was “DL1”; in data set [4] (6 months, listed as DL1), “DL1”.

As for `C[C@H]1CN(C(=O)CC#N)[C@]12CCN(c1ncnc3[nH]ccc13)C2` [Form DL2, 3-[(3S,4R)-3-methyl-7-(7H-pyrrolo[2,3-d]pyrimidin-4-yl)-1,7-diazaspiro[3.4]octan-1-yl]-3-oxopropanenitrile], the XRPD after grinding entry in data set [1] (listed as DL2) is reported as “DL2”. In addition, the “XRPD after storage at different relative humidities for 7 days” value in data set [2] (20% relative humidity, listed as DL2) is reported as “DL2”; in data set [2] (40% relative humidity, listed as DL2), “DL2”; in data set [2] (60% relative humidity, listed as DL2), “DL2”; in data set [2] (80% relative humidity, listed as DL2), “DL2”. For the same compound, the “XRPD after compression force” value in data set [3] (listed as DL2) is on record as “DL2”. The “XRPD after storage at 25° C. at 60% RH” value in data set [4] (1 month, listed as DL2) was “DL2”; in data set [4] (2 months, listed as DL2), “DL2”; in data set [4] (3 months, listed as DL2), “DL2”; in data set [4] (6 months, listed as DL2), “DL2”. Besides, the “XRPD after storage at 40° C. at 75% RH” value in data set [4] (1 month, listed as DL2) was “DL2”; in data set [4] (2 months, listed as DL2), “DL2”; in data set [4] (3 months, listed as DL2), “DL2”; in data set [4] (6 months, listed as DL2) it was “DL2”.

`C[C@H]1CN(C(=O)CC#N)[C@]12CCN(c1ncnc3[nH]ccc13)C2` [Form DL3, 3-[(3S,4R)-3-methyl-7-(7H-pyrrolo[2,3-d]pyrimidin-4-yl)-1,7-diazaspiro[3.4]octan-1-yl]-3-oxopropanenitrile]: in data set [1] (listed as DL3), the XRPD after grinding result is reported as “DL3”. Also, the “XRPD after storage at different relative humidities for 7 days” value in data set [2] (20% relative humidity, listed as DL3) was “DL3”; in data set [2] (40% relative humidity, listed as DL3), “DL3”; in data set [2] (60% relative humidity, listed as DL3), “DL3”; in data set [2] (80% relative humidity, listed as DL3) it was “DL3”. For the same compound, in data set [3] (listed as DL3), the “XRPD after compression force” value is given as “DL3”. Besides, the “XRPD after storage at 25° C. at 60% RH” value in data set [4] (1 month, listed as DL3) is “DL3”; in data set [4] (2 months, listed as DL3), “DL3”; in data set [4] (3 months, listed as DL3), “DL3”; in data set [4] (6 months, listed as DL3), “DL3”. Besides, the “XRPD after storage at 40° C. at 75% RH” value in data set [4] (1 month, listed as DL3) was “DL3”; in data set [4] (2 months, listed as DL3), “DL3”; in data set [4] (3 months, listed as DL3), “DL3”; in data set [4] (6 months, listed as DL3) it was “DL3”.
